Measurements: patent US9453026B2, “ACC inhibitors and uses thereof” (Gilead Apollo, Inc., priority 2011, dated 2016)

Assays:
[1] = Respiratory Quotient Measurement Assay; type: in vivo, Sprague-Dawley rats; conditions: rats, FIG. 9 and FIG. 10
Description: Compounds of the present invention were also assayed in a Respiratory Quotient Measurement Assay, as described by Harwood et al. “Isozyme-nonselective N-Substituted Bipiperidylcarboxamide Acetyl-CoA Carboxylase Inhibitors Reduce Tissue Malonyl-CoA Concentrations, Inhibit Fatty Acid Synthesis, and Increase Fatty Acid Oxidation in Cultured Cells and in Experimental Animals” Journal of Biological Chemistry (2008) 278, 37099-37111. An exemplary procedure for the assay, which measures the ratio of carbon dioxide production to oxygen consumption in rats, follows.
Male Sprague-Dawley rats (350-400 g) housed under standard laboratory conditions, either fed chow, fasted, or fasted and refed a diet high in sucrose for 2 days prior to experimentation were removed from their home cages, weighed, and placed into sealed chambers (43″43″10 cm) of the calorimeter (one rat per chamber). The chambers were placed in activity monitors. The calorimeter was calibrated before each use, air flow rate was adjusted to 1.6 liters/min, and the system settling and sampling times were set to 60 and 15 s, respectively. Base-line oxygen consumption, CO2 production, and ambulatory activity were measured every 10 min for up to 3 h before treatment. […]

[2] = High sucrose diet DIO study, plasma cholesterol and triglycerides; type: in vivo, Sprague Dawley rats; conditions: for Plasma Cholesterol / Plasma Triglycerides: high sucrose-fed DIO rats, mean ± SEM, n=14
Description: The compounds of the present invention are readily adapted to clinical use as anti-obesity agents, insulin sensitizing agents, hyperinsulinemia-reversing agents, and hepatic steatosis-reversing agents. Such activity was determined by assessing the amount of test compound that reduces body weight and percentage body fat, reduces plasma insulin levels, blunts the rise and/or accelerates the reduction in plasma insulin and glucose levels in response to an oral glucose challenge, and reduces hepatic lipid content relative to a control vehicle without test compound in mammals. Sprague Dawley rats were fed either chow, a diet high in sucrose (for example AIN76A rodent diet; Research diets Inc. Cat #10001) or a diet high in fat (for example Research diets Inc. Cat #12451), for from 3-8 weeks prior to and during test compound administration.
For example, after a 3-8 week period of ad libitum feeding of either a chow, high-fat, or high-sucrose diet, animals that continued to receive the diet were treated for 1-8 weeks with test compound administered either by oral gavage in water or saline or water or saline containing 0.5% methylcelluose using a Q.D., B.I.D, or T.I.D. dosing regimen. At various times during study and at sacrifice (by CO2 asphyxiation), blood was collected either from the tail vein of an unanesthesized rat or from the vena cava of animals at sacrifice into heparin or EDTA containing tubes for centrifugal separation to prepare plasma. Plasma levels of parameters of lipid and carbohydrate metabolism known by those skilled in the art to be altered coincident with anti-obesity, insulin sensitizing, hyperinsulinemia-reversing, and hepatic steatosis-reversing actions, including but not limited to cholesterol and triglycerides, glucose, insulin, leptin, adiponectin, ketone bodies, free fatty acids, and glycerol, are measured using methods known to those skilled in the art.
The anti-obesity, insulin sensitizing, hyperinsulinemia-reversing, and hepatic steatosis-reversing potential of compounds of the present invention are exemplified through the actions of example compound I-181. […] Results of the reduction in total body weight measurements after treatment of high fat diet-fed DIO rats with compound I-181 are shown in FIG. 11. The degree of body weight reduction paralleled plasma drug levels measured at the end of the study. […] The plasma leptin levels for animals receiving the standard chow diet (lean controls) were also evaluated to determine the extent of parameter normalization produced by compound I-181. […] Results of the reduction in plasma insulin measurements after treatment of high fat diet-fed DIO rats with compound I-181 are shown in FIG. 12. […] Results of the reduction in hepatic triglyceride and cholesterol measurements after treatment of high fat diet-fed DIO rats with compound I-181 are shown in FIG. 13. […] Results of diet-induced obesity studies measuring the effect of compound I-181 on plasma cholesterol and plasma triglycerides are shown in Table 4 below. Data shown are mean values for n=14 animals per group±SEM.

ACC2 = ACC2 (Homo sapiens, UniProt O00763); assay: In vitro ACC2 inhibition assay (ADP-Glo); type: biochemical
ACC2, sequence (O00763 whole entry, species assumed): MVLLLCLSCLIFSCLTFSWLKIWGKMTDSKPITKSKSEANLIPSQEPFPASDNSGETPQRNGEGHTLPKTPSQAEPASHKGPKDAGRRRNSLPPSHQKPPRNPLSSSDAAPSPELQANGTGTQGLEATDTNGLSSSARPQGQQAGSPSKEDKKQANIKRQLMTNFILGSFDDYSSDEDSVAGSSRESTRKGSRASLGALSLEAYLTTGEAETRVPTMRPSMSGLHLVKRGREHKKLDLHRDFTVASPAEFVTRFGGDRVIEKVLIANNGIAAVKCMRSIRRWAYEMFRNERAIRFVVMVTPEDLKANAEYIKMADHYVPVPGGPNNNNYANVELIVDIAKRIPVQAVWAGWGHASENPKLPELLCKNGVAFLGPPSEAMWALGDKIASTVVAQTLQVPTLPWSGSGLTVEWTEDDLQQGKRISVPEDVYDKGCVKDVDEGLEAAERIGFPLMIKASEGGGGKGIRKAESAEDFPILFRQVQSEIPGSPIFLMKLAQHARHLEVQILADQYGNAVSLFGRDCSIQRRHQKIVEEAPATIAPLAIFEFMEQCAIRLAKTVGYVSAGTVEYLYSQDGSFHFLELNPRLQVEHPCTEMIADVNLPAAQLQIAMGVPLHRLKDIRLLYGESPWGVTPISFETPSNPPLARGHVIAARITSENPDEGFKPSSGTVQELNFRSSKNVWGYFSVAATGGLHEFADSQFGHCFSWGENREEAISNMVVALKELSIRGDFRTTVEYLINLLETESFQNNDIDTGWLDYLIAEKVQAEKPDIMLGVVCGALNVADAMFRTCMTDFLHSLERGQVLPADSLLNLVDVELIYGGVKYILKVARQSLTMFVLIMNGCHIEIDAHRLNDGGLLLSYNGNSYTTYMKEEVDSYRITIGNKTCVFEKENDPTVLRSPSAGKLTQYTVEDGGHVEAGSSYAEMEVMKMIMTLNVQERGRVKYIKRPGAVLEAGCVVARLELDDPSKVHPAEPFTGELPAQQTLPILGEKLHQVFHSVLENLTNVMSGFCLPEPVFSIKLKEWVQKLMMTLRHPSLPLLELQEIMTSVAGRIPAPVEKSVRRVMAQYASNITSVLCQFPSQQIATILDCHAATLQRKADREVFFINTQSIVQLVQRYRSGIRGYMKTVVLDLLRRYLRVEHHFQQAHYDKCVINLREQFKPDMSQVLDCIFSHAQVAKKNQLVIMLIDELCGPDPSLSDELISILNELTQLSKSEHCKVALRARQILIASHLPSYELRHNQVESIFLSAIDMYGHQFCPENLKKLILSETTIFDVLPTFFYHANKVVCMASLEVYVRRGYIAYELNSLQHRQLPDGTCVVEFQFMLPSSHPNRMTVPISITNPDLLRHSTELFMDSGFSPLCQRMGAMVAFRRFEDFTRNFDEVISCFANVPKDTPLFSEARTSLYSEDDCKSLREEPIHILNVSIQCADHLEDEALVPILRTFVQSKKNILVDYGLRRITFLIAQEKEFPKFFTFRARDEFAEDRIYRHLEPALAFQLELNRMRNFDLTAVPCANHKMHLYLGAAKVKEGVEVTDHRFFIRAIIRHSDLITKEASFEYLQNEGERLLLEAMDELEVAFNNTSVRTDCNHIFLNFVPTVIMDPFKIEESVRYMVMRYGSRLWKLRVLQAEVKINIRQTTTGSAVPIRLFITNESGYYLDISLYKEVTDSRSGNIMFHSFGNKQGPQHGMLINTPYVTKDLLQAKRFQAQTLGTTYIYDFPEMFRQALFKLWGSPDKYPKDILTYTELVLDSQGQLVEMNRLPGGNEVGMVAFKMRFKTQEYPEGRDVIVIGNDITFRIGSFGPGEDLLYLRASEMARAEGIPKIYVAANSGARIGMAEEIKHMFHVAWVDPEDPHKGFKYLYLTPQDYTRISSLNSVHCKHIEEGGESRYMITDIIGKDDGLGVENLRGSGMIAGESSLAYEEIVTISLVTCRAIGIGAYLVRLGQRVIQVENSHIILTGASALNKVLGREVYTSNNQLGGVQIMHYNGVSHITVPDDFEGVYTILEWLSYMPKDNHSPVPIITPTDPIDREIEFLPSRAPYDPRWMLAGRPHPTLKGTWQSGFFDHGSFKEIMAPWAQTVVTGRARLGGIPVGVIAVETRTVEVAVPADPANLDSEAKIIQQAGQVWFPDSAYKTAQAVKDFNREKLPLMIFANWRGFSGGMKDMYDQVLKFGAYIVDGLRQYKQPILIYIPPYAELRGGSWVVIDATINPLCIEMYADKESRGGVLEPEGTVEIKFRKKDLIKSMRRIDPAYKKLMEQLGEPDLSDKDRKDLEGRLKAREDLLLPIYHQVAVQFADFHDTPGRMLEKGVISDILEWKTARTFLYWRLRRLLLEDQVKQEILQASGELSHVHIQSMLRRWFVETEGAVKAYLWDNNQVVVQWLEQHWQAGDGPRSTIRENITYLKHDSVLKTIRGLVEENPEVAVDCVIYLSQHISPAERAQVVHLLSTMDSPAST
Procedure, shortened: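 Enzyme (human ACC1 or ACC2) and compound, serially diluted 1:3 over 11 points from a 600 uM DMSO stock, were preincubated 15 min before substrate addition.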

## COc1ccccc1[C@H](Cn1c(=O)n(C(C)(C)C(=O)O)c(=O)c2c(C)c(-c3ncco3)sc21)OC1CCOCC1 [I-181, 2-[1-[2-(2-methoxyphenyl)-2-(oxan-4-yloxy)ethyl]-5-methyl-6-(1,3-oxazol-2-yl)-2,4-dioxo-1H,2H,3H,4H-thieno[2,3-d]pyrimidin-3-yl]-2-methylpropanoic acid]
[1]
  RQ relative to baseline: 80-90 % of its baseline value
[1]; doses of 3, 10, 30 and 100 mg/kg
  RQ, dose dependence: dose-dependent decreases in RQ
[2]; high sucrose diet rats, 3, 10, 30 mg/kg once daily oral gavage, two weeks
  plasma cholesterol and triglyceride levels: dose-dependent reduction in plasma cholesterol and triglyceride levels
[2]; 3 mg/kg, Day 7
  Plasma Cholesterol: 94 ± 3 mg/dL
  Plasma Triglycerides: 154 ± 15 mg/dL
[2]; 3 mg/kg, Day 14
  Plasma Cholesterol: 96 ± 3 mg/dL
  Plasma Triglycerides: 171 ± 16 mg/dL
[2]; 3 mg/kg, Prebleed
  Plasma Cholesterol: 96 ± 2 mg/dL
  Plasma Triglycerides: 144 ± 12 mg/dL
[2]; 10 mg/kg, Day 7
  Plasma Cholesterol: 82 ± 3 mg/dL
  Plasma Triglycerides: 139 ± 10 mg/dL
[2]; 10 mg/kg, Day 14
  Plasma Cholesterol: 87 ± 3 mg/dL
  Plasma Triglycerides: 165 ± 15 mg/dL
[2]; 10 mg/kg, Prebleed
  Plasma Cholesterol: 96 ± 3 mg/dL
  Plasma Triglycerides: 183 ± 18 mg/dL
[2]; 30 mg/kg, Day 7
  Plasma Cholesterol: 78 ± 3 mg/dL
  Plasma Triglycerides: 116 ± 9 mg/dL
[2]; 30 mg/kg, Day 14
  Plasma Cholesterol: 78 ± 2 mg/dL
  Plasma Triglycerides: 118 ± 14 mg/dL
[2]; 30 mg/kg, Prebleed
  Plasma Cholesterol: 99 ± 3 mg/dL
  Plasma Triglycerides: 166 ± 13 mg/dL
ACC2
  IC50: < 100 nM
